# Experimental data reported in the supplement of paper PMC10307832.
# Legend:
# Assay in all cases: relative viability (nuclei count vs DMSO), 5 days (fraction); higher = more cells survive
# [1] = compound: N=C1NC(=O)/C(=C/c2ccc(O)cc2)S1 [Mirin] + CCNC(=O)c1noc(-c2cc(C(C)C)c(O)cc2O)c1-c1ccc(CN2CCOCC2)cc1 [Luminespib] (partner 0.01 µM)
# How it was run: (§1)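 For relative viability, nuclei counts in treated wells were divided by those in vehicle wells. Lung cancer cell lines had been pin-tool dosed in 1536-well plates the day after seeding and cultured for 5 days, then fixed and stained in one step (final 0.05% Triton X-100, 1% formaldehyde, 1 ug/ml Hoechst) and imaged at 4×. Doses were one drug alone or a fixed anchor-drug dose plus five library-drug doses (not always all listed) in √10 steps, and values are duplicate-plate medians.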
# [2] = compound: CCC1=CN=CN=C1N2CCN(CC2)CC3=NC4=C(N3)C=C(C=C4)C(F)(F)F + CC(C)C[C@H](NC(=O)[C@H](Cc1ccccc1)NC(=O)c1cnccn1)B(O)O [Bortezomib] (partner 0.002 µM)
# How it was run: as §1
# [3] = compound: CCC1=CN=CN=C1N2CCN(CC2)CC3=NC4=C(N3)C=C(C=C4)C(F)(F)F + C[C@@H](Oc1cc(-c2cnn(C3CCNCC3)c2)cnc1N)c1c(Cl)ccc(F)c1Cl [Crizotinib] (partner 1 µM)
# How it was run: as §1
# [4] = compound: CCn1c(-c2nonc2N)nc2cnc(Oc3cccc(NC(=O)c4ccc(OCCN5CCOCC5)cc4)c3)cc21 + Nc1ncn([C@H]2C[C@H](O)[C@@H](CO)O2)c(=O)n1 [Decitabine] (partner 2 µM)
# How it was run: as §1
Cell Line,relative viability ([1]; first compound 0.25 µM),relative viability ([1]; first compound 0.7906 µM),relative viability ([1]; first compound 2.5 µM),relative viability ([1]; first compound 7.906 µM),relative viability ([1]; first compound 25 µM),relative viability ([2]; first compound 0.04 µM),relative viability ([2]; first compound 0.1265 µM),relative viability ([2]; first compound 0.4 µM),relative viability ([2]; first compound 1.265 µM),relative viability ([2]; first compound 4 µM),relative viability ([3]; first compound 0.04 µM),relative viability ([3]; first compound 0.1265 µM),relative viability ([3]; first compound 0.4 µM),relative viability ([3]; first compound 1.265 µM),relative viability ([3]; first compound 4 µM),relative viability ([4]; first compound 0.04 µM),relative viability ([4]; first compound 0.1265 µM),relative viability ([4]; first compound 0.4 µM),relative viability ([4]; first compound 1.265 µM),relative viability ([4]; first compound 4 µM)
NCI-H1623,0.547,0.506,0.574,0.449,0.325,,,,,,,,,,,,,,,
NCI-H2009,0.983,1.15,1.02,0.925,1.07,1.13,0.999,1.03,0.716,0.982,1.06,1.05,1.07,1.05,1.03,0.292,0.304,0.25,0.216,0.175
ABC-1,0.746,0.879,0.73,0.534,0.341,0.315,0.314,0.312,0.402,0.37,1.09,1.04,1.38,1.11,0.852,1.13,1.07,1.21,0.507,0.672
IA-LM,,,,,,0.786,0.911,0.761,0.752,0.702,0.907,0.763,0.94,0.669,0.759,,,,,
NCI-H441,0.377,0.321,0.343,0.269,0.282,0.523,0.366,0.301,0.356,0.383,0.742,0.627,0.789,0.859,1.04,0.307,0.183,0.227,0.265,0.261
NCI-H1792,0.34,0.461,0.438,,0.423,0.885,0.782,0.926,1.04,1,0.881,0.875,0.94,0.958,1.01,0.45,0.637,0.461,0.433,0.372
SW 900,0.164,0.178,0.206,0.174,0.154,,,,,,,,,,,0.412,0.453,0.42,0.442,0.456
SK-MES-1,0.869,0.915,0.88,0.919,0.7,,,,,,1.01,1.01,0.942,1.09,1.19,0.348,0.375,0.372,0.358,0.333
NCI-H1299,,,,,,1.06,0.998,1.01,0.983,1.01,0.935,0.953,0.953,0.96,0.981,,,,,
NCI-H1563,0.54,0.6,0.476,0.589,0.5,0.829,1,0.838,0.656,0.976,0.822,0.847,0.928,0.962,1.09,,,,,
NCI-H1944,0.679,0.751,0.694,0.543,0.359,,,,,,1.21,0.988,1.13,,1.23,0.416,0.414,0.425,0.442,0.428
LK-2,0.148,,0.19,0.153,0.133,,,,,,0.331,0.181,0.212,0.486,1.07,0.382,0.385,0.191,0.183,0.29
Calu-6,,,,,,0.969,0.924,0.871,0.884,0.829,0.742,0.707,0.832,0.905,0.982,,,,,
NCI-H1395,0.687,0.449,0.662,0.649,0.622,,,,,,,,,,,0.701,0.601,0.646,0.459,0.521
NCI-H1703,,,,,,0.305,0.26,0.248,0.446,0.307,1.07,0.697,0.775,0.858,1.23,,,,,
EBC-1,,,,,,0.557,0.528,0.6,0.458,0.486,0.186,0.169,0.218,0.196,0.169,,,,,
NCI-H2342,0.671,0.815,0.753,0.592,0.7,,,,,,,,,,,0.664,0.755,0.814,0.579,0.687
NCI-H1648,,,,,,,,,,,,,,,,0.55,0.65,0.85,0.695,0.675
NCI-H522,0.884,1.11,1.23,0.875,0.801,,,,,,,,,,,0.672,0.819,0.698,0.648,0.621
A549,,,,,,,,,,,0.734,0.801,0.816,0.829,0.827,0.219,0.304,0.272,,0.108
HCC-78,,,,,,0.538,0.592,0.59,0.528,0.517,0.304,0.3,0.345,0.322,0.379,0.613,0.78,,0.74,0.634
